Reference: US5162328A, “N-[3-[2-(1H-imidazol-1-yl)ethoxy]phenyl]-4-(2-thienyl)-2-pyrimidinamine and pharmacologically acceptable salts” (American Cyanamid Company, priority 1991, dated 1992)
Read-outs that look alike come from different tables or passages of the source.

Assay: Pharmacokinetics in dogs (plasma concentration by HPLC)
Assay type: in vivo, dog (beagle)
Conditions: dog; for concentration at 0.5 h / concentration at 1 h / concentration at 2 h / concentration at 4 h / concentration at 7 h / concentration at 12 h / AUC(0-t) / Cmax / Tmax / half-life / AUC(0-inf): plasma, po, 2 mg/kg/day, 2 mg/kg/day PO; for AUC(0-inf): read-out: AUCO- (to infinite time)
Description: Since dogs are used in toxicology studies of antiasthma compounds, this species is chosen for pharmacokinetic evaluations. Use of the dog permits the pharmacokinetic comparison of 2 or more compounds in the same test animal, an evaluation which could not be conveniently performed in a smaller species. For each test compound, normal dogs are given a dose of 2.0 mg/kg/day for 5 consecutive days. There is a washout period of 1 month between the study of each of the test compounds in the same four dogs. Each test compound is administered as a solution of 5 mg/ml in either 0.05 or 0.1N HCl which is dispensed into a gelatin capsule immediately prior to dosage.
Heparinized blood samples are obtained from each animal on the first, third and fifth day of dosage at 0.5, 1.0, 2.0, 4.0, 7.0, 12.0 and 24.0 hours after the dose. The samples are centrifuged immediately to obtain plasma which is frozen until analyzed.
Analysis of plasma is performed using High Performance Liquid Chromatography (HPLC). The analytical procedure is essentially identical for each compound. The internal standard used for N-[3-[2-(1H-imidazol-1-yl)ethoxy]phenyl]-4-(2-thienyl)2-pyrimidinamine is 2-chloro-11-(4-methyl-1-piperazinyl)dibenz[b,f][1,4]oxazepine succinate, while for 2-methyl-N^4 -[4-(4-pyridinyl)-2-pyrimidinyl]-1,4-benzenediamine dihydrochloride and N-[4-[2-(diethylamino)ethoxy]phenyl]-4-(4-pyridinyl)-2-pyrimidnamine dihydrochloride the internal standard is 7-ethoxy-coumarin. In a typical procedure, a 0.4 ml volume of acetonitrile containing internal standard is added a 0.2 ml volume of serum. The sample is mixed by vortexing and centrifuged. The clear protein free supernatent fluid is decanted into a clean tube and evaporated to dryness. The dry residue is dissolved in 0.2 ml of HPLC mobile phase and 50 ul of this solution injected. Peaks corresponding to the test compound being measured and to the internal standard compound are quantitated by their absorption of ultraviolet light at 280 nm. Each set of analytical samples is accompanied by the analysis of a group of standard dog plasma samples prepared to contain amounts of the compound being measured which encompasses the concentration range of the samples.
Four normal beagle dogs weighing between 9.2 and 10.2 Kg are used in the study.

c1cc(Nc2nccc(-c3cccs3)n2)cc(OCCn2ccnc2)c1 [N-[3-[2-(1H-imidazol-1-yl)ethoxy]phenyl]-4-(2-thienyl)-2-pyrimidinamine]
concentration in plasma over a 12 hour period (in words) (after first dose, FIG. 4): at a higher level for a longer period than the other test compounds
concentration at 0.5 h (Dog 1, day 1, 0.5 h): 483 ng/mL
concentration at 1 h (Dog 1, day 1, 1 h): 595 ng/mL
concentration at 2 h (Dog 1, day 1, 2 h): 392 ng/mL
concentration at 4 h (Dog 1, day 1, 4 h): 281 ng/mL
concentration at 7 h (Dog 1, day 1, 7 h): 122 ng/mL
concentration at 12 h (Dog 1, day 1, 12 h): < 30 ng/mL
AUC(0-t) (Dog 1, day 1): 2160 ng·h/mL
Cmax (Dog 1, day 1): 595 ng/mL
Tmax (Dog 1, day 1): 1 h
half-life (Dog 1, day 1): 165 min
AUC(0-inf) (Dog 1, day 1): 2480 ng·h/mL
concentration at 0.5 h (Dog 1, day 3, 0.5 h): < 30 ng/mL
concentration at 1 h (Dog 1, day 3, 1 h): 125 ng/mL
concentration at 2 h (Dog 1, day 3, 2 h): 98 ng/mL
concentration at 4 h (Dog 1, day 3, 4 h): < 30 ng/mL
concentration at 7 h (Dog 1, day 3, 7 h): < 30 ng/mL
concentration at 12 h (Dog 1, day 3, 12 h): < 30 ng/mL
AUC(0-t) (Dog 1, day 3): 143 ng·h/mL
Cmax (Dog 1, day 3): 125 ng/mL
Tmax (Dog 1, day 3): 1 h
AUC(0-inf) (Dog 1, day 3): 398 ng·h/mL
concentration at 0.5 h (Dog 1, day 5, 0.5 h): 339 ng/mL
concentration at 1 h (Dog 1, day 5, 1 h): 418 ng/mL
concentration at 2 h (Dog 1, day 5, 2 h): 267 ng/mL
concentration at 4 h (Dog 1, day 5, 4 h): 112 ng/mL
concentration at 7 h (Dog 1, day 5, 7 h): < 30 ng/mL
concentration at 12 h (Dog 1, day 5, 12 h): < 30 ng/mL
AUC(0-t) (Dog 1, day 5): 996 ng·h/mL
Cmax (Dog 1, day 5): 418 ng/mL
Tmax (Dog 1, day 5): 1 h
half-life (Dog 1, day 5): 94.8 min
AUC(0-inf) (Dog 1, day 5): 1290 ng·h/mL
concentration at 0.5 h (Dog 2, day 1, 0.5 h): 185 ng/mL
concentration at 1 h (Dog 2, day 1, 1 h): 334 ng/mL
concentration at 2 h (Dog 2, day 1, 2 h): 251 ng/mL
concentration at 4 h (Dog 2, day 1, 4 h): 161 ng/mL
concentration at 7 h (Dog 2, day 1, 7 h): < 30 ng/mL
concentration at 12 h (Dog 2, day 1, 12 h): < 30 ng/mL
AUC(0-t) (Dog 2, day 1): 881 ng·h/mL
Cmax (Dog 2, day 1): 334 ng/mL
Tmax (Dog 2, day 1): 1 h
half-life (Dog 2, day 1): 173 min
AUC(0-inf) (Dog 2, day 1): 1300 ng·h/mL
concentration at 0.5 h (Dog 2, day 3, 0.5 h): < 30 ng/mL
concentration at 1 h (Dog 2, day 3, 1 h): 205 ng/mL
concentration at 2 h (Dog 2, day 3, 2 h): 129 ng/mL
concentration at 4 h (Dog 2, day 3, 4 h): 36 ng/mL
concentration at 7 h (Dog 2, day 3, 7 h): < 30 ng/mL
concentration at 12 h (Dog 2, day 3, 12 h): < 30 ng/mL
AUC(0-t) (Dog 2, day 3): 383 ng·h/mL
Cmax (Dog 2, day 3): 205 ng/mL
Tmax (Dog 2, day 3): 1 h
half-life (Dog 2, day 3): 70.8 min
AUC(0-inf) (Dog 2, day 3): 477 ng·h/mL
concentration at 0.5 h (Dog 2, day 5, 0.5 h): 54 ng/mL
concentration at 1 h (Dog 2, day 5, 1 h): 222 ng/mL
concentration at 2 h (Dog 2, day 5, 2 h): 149 ng/mL
concentration at 4 h (Dog 2, day 5, 4 h): 30 ng/mL
concentration at 7 h (Dog 2, day 5, 7 h): < 30 ng/mL
concentration at 12 h (Dog 2, day 5, 12 h): < 30 ng/mL
AUC(0-t) (Dog 2, day 5): 447 ng·h/mL
Cmax (Dog 2, day 5): 222 ng/mL
Tmax (Dog 2, day 5): 1 h
half-life (Dog 2, day 5): 59.4 min
AUC(0-inf) (Dog 2, day 5): 525 ng·h/mL
concentration at 0.5 h (Dog 3, day 1, 0.5 h): 97 ng/mL
concentration at 1 h (Dog 3, day 1, 1 h): 325 ng/mL
concentration at 2 h (Dog 3, day 1, 2 h): 303 ng/mL
concentration at 4 h (Dog 3, day 1, 4 h): 138 ng/mL
concentration at 7 h (Dog 3, day 1, 7 h): 45 ng/mL
concentration at 12 h (Dog 3, day 1, 12 h): < 30 ng/mL
AUC(0-t) (Dog 3, day 1): 1160 ng·h/mL
Cmax (Dog 3, day 1): 325 ng/mL
Tmax (Dog 3, day 1): 1 h
half-life (Dog 3, day 1): 109 min
AUC(0-inf) (Dog 3, day 1): 1280 ng·h/mL
concentration at 0.5 h (Dog 3, day 3, 0.5 h): 292 ng/mL
concentration at 1 h (Dog 3, day 3, 1 h): 350 ng/mL
concentration at 2 h (Dog 3, day 3, 2 h): 220 ng/mL
concentration at 4 h (Dog 3, day 3, 4 h): 60 ng/mL
concentration at 7 h (Dog 3, day 3, 7 h): < 30 ng/mL
concentration at 12 h (Dog 3, day 3, 12 h): < 30 ng/mL
